Data published in patent US11787839B2, “Targeting α2δ-1-bound glutamate receptors for treating diseases and disorders” (Board of Regents, The University of Texas System, priority 2017, dated 2023).
Entries after “also recorded” stand apart in the source; their conditions may differ.

Assays:
[1] = test system: rats treated with the Cacna2d1 vector; assay: Withdrawal thresholds in rats overexpressing Cacna2d1 (lentiviral vector); format: in vivo, rat; details: Cacna2d1 vector rats; AP5, peptide, gabapentin intrathecal; memantine systemic
[2] = target: T1, NMDARs of spinal dorsal horn neurons (Mus musculus, UniProt P35436+P35438+Q01097); assay: Electrophysiological recordings in mouse spinal cord slices (spared nerve injury); format: cell-based; details: Cacna2d1+/+ mice; bath application of AP5
T1 construct: from tissue; host or cells: mouse lumbar spinal cord slices (dorsal horn / lamina II neurons), WT and Cacna2d1 KO

[3] = test system: presynaptic NMDARs of spinal lamina II neurons; assay: Spinal cord slice recordings, paclitaxel-treated WT and α2δ-1 KO mice; format: cell-based, mouse; details: bath AP5
SHRs = assay: PVN microinjection and recording of ABP and RSNA in SHRs; format: in vivo, rat
Description: PVN microinjection and recording of renal sympathetic nerve activity: Rats were anaesthetized via i.p. administration of a mixture of α-chloralose (60 mg kg-1) and urethane (800 mg kg-1) and mechanically ventilated with trachea cannulation. The arterial blood pressure (ABP) was monitored via a catheter placed in the left femoral artery, and heart rate (HR) was extracted from the pulsatile pressure wave. A retroperitoneal incision was made, and a branch of the left renal postganglionic sympathetic nerve was isolated under a surgical microscope. The renal sympathetic nerve was cut distally to ensure that afferent activity was not recorded. The ABP, HR and renal sympathetic nerve activity (RSNA) were recorded using a 1401-PLUS analogue-to-digital converter and Spike2 system (Cambridge Electronic Design, Cambridge, UK). After the brain was exposed, a microinjection pipette (tip diameter 20-30 μm) was advanced into the PVN in accordance with the stereotactic co-ordinates: 1.6-2.0 mm caudal to the bregma, 0.5 mm lateral to the midline and 7.0-7.5 mm ventral to the dura. The microinjection was performed using a Nanoject II (Drummond Scientific Company) and monitored using a surgical microscope as described previously (Li & Pan, 2006, 2007; Qiao et al. 2017). […] At the end of each experiment, the electrical background noise was measured after the proximal end of renal nerve was crushed at the end of each experiment. To determine the location of the injection site and diffusion of the drugs in the PVN, 5% rhodamine-labelled fluorescent microspheres (0.04 μm; Molecular Probes) were included in the injection solution. Rats were excluded from the data analysis if the microinjections were misplaced outside the PVN.

[4] = test system: presynaptic NMDARs of spinal dorsal horn neurons; assay: Spinal cord slice recordings, morphine-treated WT and Cacna2d1 KO mice
SNL rats = assay: Withdrawal thresholds in spinal nerve ligation (SNL), sham and naive rats; format: in vivo, rat
Source text: Animal models of neuropathic pain: All surgical preparations and experimental protocols were approved by the Animal Care and Use Committee of the University of Texas MD Anderson Cancer Center and conformed to the National Institutes of Health guidelines for the ethical use of animals. Male Sprague-Dawley rats (8-10 weeks of age) were purchased from Harlan Laboratories (Indianapolis, Ind.). L5 and L6 spinal nerve ligation (SNL) were used as an experimental model of neuropathic pain (Cole et al., 2005). In brief, anesthesia was induced with 2-3% isoflurane, isolated the left L5-L6 spinal nerves and ligated them tightly with 6-0 silk sutures. The rats in the sham control group underwent the same surgical procedures except for the nerve ligation.
Intrathecal catheters were implanted in some SNL group rats during isoflurane-induced anesthesia 2-3 weeks after SNL surgery. Briefly, the anesthetized animal was placed on a stereotaxic frame, and a small incision was made at the back of its neck. Then, a small puncture was made in the atlanto-occipital membrane of the cisterna magna, and a PE-10 catheter (˜8 cm) was inserted with the caudal tip reaching the lumbar enlargement of the spinal cord (Luo et al., 2001; Patel et al., 2013). The rostral end of the catheter was exteriorized and closed the wound with sutures. The animals were allowed to recover for at least 4 days before the intrathecal injections were performed. Animals displaying signs of motor or neurological dysfunction were immediately killed with an intraperitoneal injection of phenobarbital (200 mg/kg) or by inhalation of CO2.
Behavioral assessments of nociception: To detect tactile allodynia, von Frey filaments were applied to the animals' left hindpaws (ipsilateral to the nerve injury). The rats or mice were placed individually in suspended chambers on a mesh floor. After an acclimation period of 30 min, a series of calibrated von Frey filaments were applied (Stoelting, Wood Dale, Ill.) perpendicularly to the plantar surface of the hindpaw with sufficient force to bend the filament for 6 s. Brisk withdrawal or paw flinching was considered a positive response. After a response, the filament of the next lower force was applied. In the absence of a response, the filament of the next greater force was applied. Using the up-down method, the tactile stimulus that produced a 50% likelihood of a withdrawal response was calculated (Fuller-Bicer et al., 2009).
To quantify the mechanical nociceptive threshold in the rats and mice (Patel et al., 2013; Dolphin et al., 2012), the paw pressure tests were conducted on the hindpaw with an analgesiometer (Ugo Basile, Varese, Italy). The device was activated by pressing a foot pedal, which triggered a motor that applied a constantly increasing force on a linear scale. […]

α2δ-1 = assay: α2δ expression in DRG and dorsal spinal cord after intrathecal siRNA (PCR, Western blot); format: in vivo, rat; details: SNL rats
Description: Li et al., 2004). α2δ-1-specific siRNA […] ID NO:49) or universal negative-control siRNA (#SIC001, Sigma-Aldrich, St. Louis, Mo.) was mixed with i-Fect (Neuromics, Edina, Minn.) to a final concentration of 400 mg/L for the intrathecal injections. α2δ-1-specific siRNA or negative control siRNA (4 μg/day for 4 days) was administered intrathecally in the SNL rats 3 weeks after surgery (Dolphin et al., 2012). Western immunoblotting analysis of α2δ-1: Western blotting was used to quantify the α2δ-1 expression level in the DRG and dorsal spinal cord. […] The supernatant was carefully collected, and the protein concentration was measured using a DC Protein Assay Kit (Bio-Rad, Hercules, Calif.). […] The specific protein band detected by using the α2δ-1 antibody was confirmed by assays of protein knockdown using the α2δ-1-specific siRNA in vivo. The protein bands were detected with ECL kit (Thermo Fisher Scientific, Waltham, Mass.), and protein band intensity was visualized and quantified using the Odyssey Fc Imager (LI-COR Biosciences, Lincoln, Nebr.). Quantitative PCR analysis: Total RNA was extracted from the DRG and spinal cord tissues at the L5 and L6 levels using TRIzol-chloroform and then treated with DNase I (Invitrogen). cDNA was prepared by using the SuperScript III First-Strand Synthesis Kit and then treated with RNase H (Invitrogen). […]

[5] = target: T2, NMDARs of spinal dorsal horn neurons (Rattus norvegicus, UniProt P35439+Q00959+Q00960); assay: Electrophysiological recordings in rat spinal cord slices (SNL, Cacna2d1 vector); format: cell-based; set-up: SNL-induced increase in (NMDAR-mediated) baseline frequency of mEPSCs: dose or concentration left out as unconfirmed; details: SNL rats, siRNA intrathecal
T2 construct: from tissue; host or cells: rat lumbar spinal cord slices (lamina II neurons) and synaptosomes made from them
T2 sequence (Q00959 20-1464 limits assumed, other chains not shown): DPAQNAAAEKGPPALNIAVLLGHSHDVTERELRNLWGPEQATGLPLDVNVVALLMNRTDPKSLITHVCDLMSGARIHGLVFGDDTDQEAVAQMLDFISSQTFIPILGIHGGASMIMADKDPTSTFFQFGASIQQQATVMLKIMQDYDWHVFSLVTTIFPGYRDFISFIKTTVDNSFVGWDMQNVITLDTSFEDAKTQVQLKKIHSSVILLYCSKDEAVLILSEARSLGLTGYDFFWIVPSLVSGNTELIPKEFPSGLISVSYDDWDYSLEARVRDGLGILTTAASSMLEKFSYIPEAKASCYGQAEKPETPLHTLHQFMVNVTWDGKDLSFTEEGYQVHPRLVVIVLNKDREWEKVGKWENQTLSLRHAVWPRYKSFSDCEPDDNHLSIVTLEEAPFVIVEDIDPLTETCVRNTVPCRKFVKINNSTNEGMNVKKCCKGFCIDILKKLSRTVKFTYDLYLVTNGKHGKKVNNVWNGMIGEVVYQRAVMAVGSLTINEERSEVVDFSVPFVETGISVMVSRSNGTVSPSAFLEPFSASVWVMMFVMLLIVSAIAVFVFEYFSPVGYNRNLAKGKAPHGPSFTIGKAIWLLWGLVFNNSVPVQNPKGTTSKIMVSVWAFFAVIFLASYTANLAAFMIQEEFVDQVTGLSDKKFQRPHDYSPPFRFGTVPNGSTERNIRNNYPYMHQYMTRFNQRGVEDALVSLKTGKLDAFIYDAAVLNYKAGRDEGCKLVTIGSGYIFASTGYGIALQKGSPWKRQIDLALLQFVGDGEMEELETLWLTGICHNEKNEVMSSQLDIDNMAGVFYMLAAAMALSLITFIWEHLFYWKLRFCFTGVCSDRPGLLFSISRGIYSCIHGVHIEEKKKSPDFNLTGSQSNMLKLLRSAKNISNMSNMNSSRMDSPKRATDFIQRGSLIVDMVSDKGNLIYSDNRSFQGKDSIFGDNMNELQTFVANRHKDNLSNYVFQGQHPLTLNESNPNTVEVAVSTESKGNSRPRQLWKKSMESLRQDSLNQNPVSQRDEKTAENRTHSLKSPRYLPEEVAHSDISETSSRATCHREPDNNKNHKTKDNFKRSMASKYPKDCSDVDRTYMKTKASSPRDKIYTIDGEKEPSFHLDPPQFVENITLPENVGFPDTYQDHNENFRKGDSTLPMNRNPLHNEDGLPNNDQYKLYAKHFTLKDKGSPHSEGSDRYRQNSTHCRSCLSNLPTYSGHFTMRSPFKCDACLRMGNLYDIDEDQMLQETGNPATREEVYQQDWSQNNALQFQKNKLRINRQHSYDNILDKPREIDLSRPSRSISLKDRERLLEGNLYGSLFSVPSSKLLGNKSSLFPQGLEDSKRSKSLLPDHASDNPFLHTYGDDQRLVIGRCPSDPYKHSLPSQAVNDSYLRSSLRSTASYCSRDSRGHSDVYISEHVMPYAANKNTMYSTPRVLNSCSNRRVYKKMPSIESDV
T2 sequence (Q00960 27-1482, other chains not shown): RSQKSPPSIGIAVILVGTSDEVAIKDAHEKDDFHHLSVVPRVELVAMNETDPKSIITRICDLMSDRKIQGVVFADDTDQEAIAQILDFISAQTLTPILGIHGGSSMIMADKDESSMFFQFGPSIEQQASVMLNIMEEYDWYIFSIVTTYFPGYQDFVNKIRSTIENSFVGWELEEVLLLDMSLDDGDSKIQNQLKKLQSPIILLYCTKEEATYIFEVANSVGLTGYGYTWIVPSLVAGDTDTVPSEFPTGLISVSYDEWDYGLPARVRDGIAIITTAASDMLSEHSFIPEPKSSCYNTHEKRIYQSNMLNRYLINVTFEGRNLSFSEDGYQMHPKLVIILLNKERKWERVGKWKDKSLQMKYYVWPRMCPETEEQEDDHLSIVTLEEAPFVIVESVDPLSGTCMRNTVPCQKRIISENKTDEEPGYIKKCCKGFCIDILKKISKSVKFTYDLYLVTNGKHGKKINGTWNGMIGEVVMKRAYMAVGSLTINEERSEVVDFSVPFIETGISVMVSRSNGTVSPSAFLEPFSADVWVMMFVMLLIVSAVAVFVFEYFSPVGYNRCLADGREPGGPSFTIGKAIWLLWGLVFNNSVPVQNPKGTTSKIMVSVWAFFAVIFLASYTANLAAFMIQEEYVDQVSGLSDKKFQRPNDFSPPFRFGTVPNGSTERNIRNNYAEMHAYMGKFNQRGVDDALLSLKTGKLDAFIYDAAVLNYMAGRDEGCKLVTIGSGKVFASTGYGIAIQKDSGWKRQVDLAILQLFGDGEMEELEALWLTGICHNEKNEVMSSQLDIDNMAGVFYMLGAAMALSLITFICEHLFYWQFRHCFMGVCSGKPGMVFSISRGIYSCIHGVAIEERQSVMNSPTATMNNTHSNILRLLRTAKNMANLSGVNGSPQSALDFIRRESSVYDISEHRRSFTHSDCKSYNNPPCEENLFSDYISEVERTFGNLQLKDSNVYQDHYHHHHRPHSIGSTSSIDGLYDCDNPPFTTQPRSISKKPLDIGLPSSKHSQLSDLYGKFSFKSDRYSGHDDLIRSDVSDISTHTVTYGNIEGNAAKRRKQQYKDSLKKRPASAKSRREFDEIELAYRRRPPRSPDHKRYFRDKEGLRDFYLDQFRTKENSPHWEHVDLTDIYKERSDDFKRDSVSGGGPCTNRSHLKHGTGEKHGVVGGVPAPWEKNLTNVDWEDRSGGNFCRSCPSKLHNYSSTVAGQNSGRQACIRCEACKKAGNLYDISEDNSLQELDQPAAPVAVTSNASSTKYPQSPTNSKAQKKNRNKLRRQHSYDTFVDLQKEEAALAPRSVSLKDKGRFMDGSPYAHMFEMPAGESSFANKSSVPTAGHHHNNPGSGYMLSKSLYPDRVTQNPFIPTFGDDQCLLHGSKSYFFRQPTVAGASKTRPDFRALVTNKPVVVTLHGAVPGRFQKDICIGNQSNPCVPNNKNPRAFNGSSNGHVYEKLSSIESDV
Description: Electrophysiological recordings in spinal cord slices: Anesthesia was induced in rats or mice with isoflurane and removed the lumbar spinal cords via laminectomy. […] The spinal cord slices were placed in a glass bottom chamber and continuously perfused with Krebs solution at 5.0 ml/min at 34° C. maintained by an inline solution heater and a temperature controller.
It becomes impossible to visualize neurons in other laminas in adult (>10-week-old) rodent spinal cords because of heavy laminar myelination. […] The tip of the puff pipette was placed 150 μm away from the recorded neuron.
In some experiments, the attached dorsal root was electrically stimulated with a stimulating electrode (0.5 ms, 0.6 mA and 0.1 Hz) to evoke monosynaptic excitatory postsynaptic currents (EPSCs). The α-amino-3-hydroxy-5-methyl-4-isoxazolepropionic acid receptor (AMPAR)-mediated EPSCs were recorded at a holding potential of −60 mV in the presence of 10 μM bicuculline and 1 μM strychnine, whereas NMDAR-mediated EPSCs were recorded at +40 mV in the presence of 10 μM 6-cyano-7-nitroquinoxaline-2,3-dione, 10 μM bicuculline, and 1 μM strychnine. […] All signals were recorded using an amplifier (MultiClamp700B; Axon Instruments Inc., Union City, Calif.), filtered at 1-2 kHz, digitized at 10 kHz, and stored for off-line analysis. Final spinal cord slice recordings were performed 3-4 weeks after the nerve injury or sham surgery. In all electrophysiological experiments, 3-5 animals were used for each recording protocol, and only 1 neuron was recorded in each spinal cord slice.

[6] = paclitaxel-treated α2δ-1 KO mice
[7] = morphine-treated Cacna2d1 KO mice, AP5
[8] = morphine-treated WT mice, AP5 50 μM

| Substance | pain hypersensitivity induced by Cacna2d1 overexpression (tactile and pressure withdrawal thresholds) [1] | nerve injury-increased amplitude of monosynaptic EPSCs evoked by dorsal root stimulation [2] | baseline PPR decreased by paclitaxel ([3]; WT mice) | paclitaxel-induced increase in the frequency of mEPSCs ([3]; WT mice) | increased baseline amplitude of evoked EPSCs ([3]; paclitaxel-treated WT mice) | PPR [3, 6] | amplitude of evoked EPSCs [3, 6] | frequency of mEPSCs [3, 6] | ABP and RSNA, subsequent AP5 after α2δ-1Tat peptide (SHRs; AP5 1.0 nmol, 50 nL into the PVN) | ABP and RSNA, AP5 after prior Tat-fused control peptide (SHRs; AP5 into the PVN) | amplitude or PPR of monosynaptic EPSCs [4, 7] | frequency or amplitude of mEPSCs [4, 7] | PPR of evoked EPSCs [4, 8] | amplitude of monosynaptic EPSCs [4, 8] | baseline frequency of mEPSCs [4, 8] | pain hypersensitivity of SNL rats (SNL rats; SNL rats, peptides intrathecal or systemic, siRNA intrathecal) | withdrawal thresholds in naive control rats (SNL rats; naive control rats, intrathecal siRNA) | expression level of α2δ-1 in the DRG and dorsal spinal cord (α2δ-1) | SNL-induced increase in puff NMDA currents of dorsal horn neurons ([5]; gabapentin 100 mM for 30 min) | SNL-induced increase in (NMDAR-mediated) baseline frequency of mEPSCs ([5]; gabapentin for 30 min) |
| --- | --- | --- | --- | --- | --- | --- | --- | --- | --- | --- | --- | --- | --- | --- | --- | --- | --- | --- | --- | --- |
| (2R)-amino-5-phosphonopentanoate [AP5] | readily reversed | readily normalized | restored | normalized | normalized | had no effect | had no effect | had no effect | failed to further decrease | significantly decreased | had no effect | had no effect | increased | significantly reduced | substantially reduced | – | – | – | – | – |
| CAAGCAACGAAGUUGUCUA [Cacna2d1-specific siRNA] | – | – | – | – | – | – | – | – | – | – | – | – | – | – | – | reduced pain hypersensitivity | had no effect; also recorded: No significant effects | reduced | completely normalized | completely normalized |
